Laboratory results taken from US9409923B2, “Drug-fluorophore complex for specific detection of tumor cells” (KOREA INSTITUTE OF SCIENCE AND TECHNOLOGY, priority 2013, dated 2016).

Assays:
[1] = in vivo; cited from earlier work
[2] = tested on: HCT-116 cells (colorectal cancer cells) including luciferase; test: Specific in vivo imaging of tumor cells (fluorescence vs luminescence, IVIS) in mouse liver tumors; set-up: species or system Mice; conditions: 25 μM in PBS (pH 7.4), 50 μl dropped on open abdomen, observed after 3 min; FIGS. 2a-2d
Protocol: (§1) Mice were anesthetized with intraperitoneal injection of ketamine and xylazine, and their abdomens were cut open. HCT-116 cells (colorectal cancer cells) including luciferase were added at a concentration of 1×10^6 cells to 20 μl saline solution and injected into the left lobe of the liver to induce tumors in the mice. Four weeks after cell injection, the tumors were imaged as follows:
(§2) The compounds of Synthesis Examples 1-5 were dissolved in PBS (pH 7.4) to prepare 25 μM solutions. Mice were anesthetized intraperitoneally and their abdomens were open. 50 μl of each of the compounds was dropped using a 100 μl pipette. After 3 min, fluorescence and luminescence were observed using an imaging system (IVIS®).
FIGS. 2a to 2d are images showing fluorescence (2a) and luminescence (2b) from the fluorophore to which toremifene was not bonded, and images showing fluorescence (2c) and luminescence (2d) from the complex of the present invention in which the fluorophore was bonded to toremifene.

[3] = tested on: HCT-116 cells (colorectal cancer cells) including luciferase; test: Ex vivo imaging on liver sections excised from mice; type: in vivo; conditions: FIGS. 3a-3d
Protocol: as §1, §2
Similarly to the procedure described above, ex vivo imaging was performed on liver sections excised from mice. The results are shown in FIGS. 3a to 3d (3a and 3b: fluorescence and luminescence images of the fluorophore, respectively; 3c and 3d: fluorescence and luminescence images of the drug-fluorophore complex, respectively).

In the case of `CC1(C)S[C@@H]2[C@H](NC(=O)[C@H](N)c3ccccc3)C(=O)N2[C@H]1C(=O)O` [Ampicillin], the Volume of distribution [1] is given as 0.38 L/kg.
For `CNCCOc1ccc(/C(=C(/CCCl)c2ccccc2)c2ccccc2)cc1` [N-desmethyltoremifene], the Volume of distribution [1] is listed as 8.3 L/kg.
In the case of `CC[N+]1=C(/C=C/C=C/C=C2/N(CCCCCC(=O)N(C)CCOc3ccc(/C(=C(/CCCl)c4ccccc4)c4ccccc4)cc3)c3ccc4c(S(=O)(=O)O)cc(S(=O)(=O)O)cc4c3C2(C)C)C(C)(C)c2c1ccc1c(S(=O)(=O)O)cc(S(=O)(=O)[O-])cc21` [Synthesis Example 3, N-desmethyl toremifene-FCR675 Carboxylic Acid Complex], the “fluorescence in tumor-bearing liver compared with luminescence position” value [2] is reported as “fluorescence was observed in the section of the liver, which was the same as the position confirmed by luminescence” and the “fluorescence and luminescence in excised liver sections (ex vivo imaging)” value [3] is reported as “the same results of the in vivo imaging were observed in the ex vivo imaging”.
